In this assay the test system is human bronchial epithelial cells. Kind of assay: Ussing chamber assay, Forskolin-induced chloride channel activity. The assay is classed as cell-based. Particulars: added after current measurement, all groups. As to the method:
The changes in chloride transport across the bronchial epithelial cell membrane was measured by short circuit current output in a Ussing epithelial voltage clamp apparatus (i.e., a Ussing chamber). Specifically, using an established Ussing Chamber procedure (Charles River Laboratories), hCFTR mRNA encapsulated in a liposome comprising ICE, DOPE, and a PEG-modified lipid was incubated for 2 or 4 hours on the apical (mucosal) or basolateral (serosal) sides, or both sides, of human bronchial epithelial cells. A buffer blank also was included as a control, for example, to assess chloride transport by endogenous CFTR in the cells. Next, Forskolin-induced chloride channel activity was measured using the Ussing chamber assay.

The structures appear in SMILES notation.

As to `O=C(O)c1ccc(/C=C2\SC(=S)N(c3cccc(C(F)(F)F)c3)C2=O)cc1` [CFTR inhibitor-172], the “Effect on chloride activity in Ussing chamber” value was “inhibited”.

The record behind these values is US12195505B2, “Treatment of cystic fibrosis by delivery of nebulized mRNA encoding CFTR” (Translate Bio, Inc., priority 2018, dated 2025).
